In ChEMBL document CHEMBL2074382, “Improvement of L-dopa absorption by dipeptidyl derivation, utilizing peptide transporter PepT1” (J Pharm Sci, 1998) one finds Activity data, which are given here for four compounds.

Assay [1] addresses T1, Solute carrier family 15 member 1 (Homo sapiens) (UniProt P46059).
T1 sequence (whole entry): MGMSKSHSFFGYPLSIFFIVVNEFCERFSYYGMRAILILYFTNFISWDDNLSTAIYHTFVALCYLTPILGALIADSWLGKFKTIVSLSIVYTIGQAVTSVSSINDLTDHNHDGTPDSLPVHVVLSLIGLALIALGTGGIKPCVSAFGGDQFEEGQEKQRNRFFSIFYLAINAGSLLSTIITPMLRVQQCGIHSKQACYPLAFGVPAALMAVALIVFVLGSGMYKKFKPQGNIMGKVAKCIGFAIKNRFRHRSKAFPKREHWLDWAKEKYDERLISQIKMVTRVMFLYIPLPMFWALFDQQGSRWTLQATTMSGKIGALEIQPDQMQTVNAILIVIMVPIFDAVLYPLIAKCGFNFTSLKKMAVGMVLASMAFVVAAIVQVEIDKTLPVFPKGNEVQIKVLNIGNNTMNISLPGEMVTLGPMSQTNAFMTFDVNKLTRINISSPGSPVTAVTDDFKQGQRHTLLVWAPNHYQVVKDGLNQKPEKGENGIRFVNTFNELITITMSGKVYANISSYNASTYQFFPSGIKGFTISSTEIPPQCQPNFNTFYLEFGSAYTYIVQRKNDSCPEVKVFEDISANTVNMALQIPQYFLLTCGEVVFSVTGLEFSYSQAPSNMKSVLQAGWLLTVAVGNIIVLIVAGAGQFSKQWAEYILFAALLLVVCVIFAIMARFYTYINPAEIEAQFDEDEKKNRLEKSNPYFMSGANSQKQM
Put plainly: TP_TRANSPORTER: uptake in Xenopus laevis oocytes. Format: functional, cell-based. The conditions noted are these: Oocyte.

For assay [2], the target named is T1, Solute carrier family 15 member 1 (Homo sapiens). As to the kind of experiment: TP_TRANSPORTER: inhibition of Gly-Sar uptake (Gly-Sar: 20 uM, L-dopa-L-Phe: 1000 uM) in Caco-2 cells. Format: functional, cell-based.

Non-standard residues stand in square brackets, D forms with d. Residues, ends and D or L forms follow the SMILES beside them. Dopa = N[C@@H](Cc1ccc(O)c(O)c1)C(=O)O

With `N[C@@H](Cc1ccccc1)C(=O)N1CCC[C@@H]1C(=O)O`, the Activity entry in assay [1] was “substrate [+]”. With `N[C@@H](Cc1ccccc1)C(=O)N1CCC[C@H]1C(=O)O`, in assay [1], the Activity result is “substrate [+]”. Same read-out and setting: the value for `NC(=O)[C@H](Cc1ccccc1)NC(=O)[C@@H](N)Cc1ccccc1` (H-Phe-Phe-NH2) was “substrate [+]”.

As to `N[C@@H](Cc1ccc(O)c(O)c1)C(=O)N[C@@H](Cc1ccccc1)C(=O)O` (H-[Dopa]-Phe-OH), the Activity entry in assay [1] was “substrate [+]”; in assay [2] it was “inhibitor [20% (at a rough estimate) of control]”.
